As usually defined, the pKi is the Ki on a negative log10 scale, so that one unit is a factor of ten. Read a low pKi as a large Ki.

pKi: −log10 of the molar value.

The experiment addresses LTB4 -receptor (Homo sapiens, UniProt Q15722). Put plainly: receptor binding test. The method, then:
The compounds according to the invention are potent LTB4 -antagonists.In particular the compound of Example 1 is obtained in vivo as a metabolite of an LTB4 -antagonistic compound and in the receptor binding test it has a Ki -value of 1.0 nM.
The activity ratios may be investigated pharmacologically and biochemically using tests such as those described in WO 93/16036, pp. 15 to 17 --the contents of which are referred to herein.

LTB4 -receptor, sequence (Q15722 whole entry): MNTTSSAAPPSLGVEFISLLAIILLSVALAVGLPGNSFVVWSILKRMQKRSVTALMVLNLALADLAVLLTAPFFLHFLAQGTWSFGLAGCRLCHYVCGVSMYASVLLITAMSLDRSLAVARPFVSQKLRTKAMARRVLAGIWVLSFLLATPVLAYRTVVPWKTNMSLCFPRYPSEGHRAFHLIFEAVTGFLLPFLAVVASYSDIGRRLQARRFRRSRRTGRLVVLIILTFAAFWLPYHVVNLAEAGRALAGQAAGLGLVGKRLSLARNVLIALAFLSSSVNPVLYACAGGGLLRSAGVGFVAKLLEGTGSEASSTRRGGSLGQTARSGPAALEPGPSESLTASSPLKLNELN

Take `CC(C)(c1ccc(OCc2cccc(COc3ccc(C(=N)N)cc3)c2)cc1)c1ccc(O[C@@H]2O[C@H](C(=O)O)[C@@H](O)[C@H](O)[C@H]2O)cc1` [Example 1, 4-[[3-[[4-[1-(4-hydroxyphenyl)-1-methylethyl]phenoxy]methyl]phenyl]methoxy]-benzenecarboximidamide-O-gluctironide]: the pKi was 9.00.
